From patent US20190111149A1, “ANTI-EGFR ANTIBODY DRUG CONJUGATE” (priority 2016, published 2019)
Bridge positions count the residues as written; N and C are the ends. Square brackets hold non-standard residues; d marks the D form. Ends that are not written are not given here. azido‑Phe = azido-phenylalanine, photoactivatable residue; Abu(3-Me-diazirin-3-yl) = CC1(CC[C@H](N)C(=O)O)N=N1; Bpa = N[C@@H](Cc1ccc(C(=O)c2ccccc2)cc1)C(=O)O

Biological target: Meditope enabled Trastuzumab
Test: BLI binding kinetics of meditope peptides to Meditope enabled Trastuzumab
Protocol: The binding kinetics of photo enabled meditopes to antibodies (e.g., meditope enabled Trastuzumab, T-mab, and P-mab) was tested.

Chain of Meditope enabled Trastuzumab (as listed by the source): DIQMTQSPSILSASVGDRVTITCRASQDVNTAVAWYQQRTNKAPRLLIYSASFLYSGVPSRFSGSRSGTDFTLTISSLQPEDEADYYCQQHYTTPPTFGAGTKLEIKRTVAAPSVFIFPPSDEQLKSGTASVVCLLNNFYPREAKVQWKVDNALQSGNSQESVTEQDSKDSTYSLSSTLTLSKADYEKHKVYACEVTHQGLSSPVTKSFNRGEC
Chain of Meditope enabled Trastuzumab (as listed by the source): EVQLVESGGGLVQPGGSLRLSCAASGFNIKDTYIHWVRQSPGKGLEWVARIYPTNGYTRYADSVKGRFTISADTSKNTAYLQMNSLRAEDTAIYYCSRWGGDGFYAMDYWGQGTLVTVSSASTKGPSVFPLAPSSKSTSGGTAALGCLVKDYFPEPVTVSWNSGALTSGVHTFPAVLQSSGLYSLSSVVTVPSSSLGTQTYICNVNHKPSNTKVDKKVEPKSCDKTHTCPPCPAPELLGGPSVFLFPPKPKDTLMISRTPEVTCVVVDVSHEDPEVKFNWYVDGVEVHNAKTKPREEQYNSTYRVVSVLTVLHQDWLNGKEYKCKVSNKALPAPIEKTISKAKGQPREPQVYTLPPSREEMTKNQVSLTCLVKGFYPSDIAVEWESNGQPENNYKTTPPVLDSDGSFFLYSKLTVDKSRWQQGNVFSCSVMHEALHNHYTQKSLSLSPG

Substance	Kd (Conc. 50 nM)	Kd (Conc. 100 nM)	kon (Conc. 100 nM)	Kd (Conc. 200 nM)	kon (Conc. 50 nM)	kon (Conc. 200 nM)
Peptide 6: MMAD conjugated photoactivatable long cQFD photo-Met 9 (CQFDLSTR[Abu(3-Me-diazirin-3-yl)]LRCGGGK; disulfide 1-12 (inferred); also: MMAD conjugated)	< 0.001 nM	2.51 nM	3.65e+06 M⁻¹ s⁻¹	0.0191 nM		
Peptide 10: MMAD conjugated photoactivatable long cQFD azido-Phe 3 (CQ[azido‑Phe]DLSTRRLRCGGGK; disulfide 1-12 (inferred); also: MMAD conjugated)	< 0.001 nM	18100 nM	266 M⁻¹ s⁻¹	30200 nM	816 M⁻¹ s⁻¹	537 M⁻¹ s⁻¹
Peptide 12: MMAD conjugated photoactivatable long cQFD benzoyl-Phe 3 (CQ[Bpa]DLSTRRLRCGGGK; disulfide 1-12 (inferred); also: MMAD conjugated)	< 0.001 nM	1.22 nM	9.47e+06 M⁻¹ s⁻¹	73.3 nM		286000 M⁻¹ s⁻¹
